Assay [1] has as its system EGFR Del19/T790M/C797S (BaF3-DTC cells). Put plainly: EGFR degradation HTRF assay, BaF3-DTC cells. Particulars: 16h treatment; for DTC Dmax (%): maximum percentage of degradation; for DC50: read-out: DTC DC50. It counts as cell-based. The gist of the method:
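BaF3 (WT, Del19/T790M/C797S) and HCC827 cells exposed 16 h at 37 °C, 5% CO2 to compounds in 0.2% DMSO medium, 8 doses from 10 uM top, 5-fold steps. Lysates read by HTRF (665/620 nm); degradation % vs DMSO control, DC50 from four-parameter fit, Dmax as maximal degradation.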
For orientation: In TR-FRET formats the signal depends on donor and acceptor labels being close together.

Assay [2] addresses T1, EGFR L858R/T790M/C797S (BaF3-LTC cells) (Homo sapiens, UniProt P00533, C797S/L858R/T790M).
T1 construct: expressed in transfected cells; host or cells: BaF3
Put plainly: EGFR degradation HTRF assay, BaF3-LTC cells. It is filed as cell-based. Particulars: BaF3-LTC, 16h treatment; for Dmax: maximum percentage of degradation, read-out: LTC Dmax (%); for DC50: read-out: LTC DC50. The gist of the method:
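Cells treated 16 h at 37 °C, 5% CO2 in medium with 0.2% DMSO; top final concentration 10 uM, 5-fold dilution, 8 doses. Lysates read by HTRF (665/620 nm); degradation % versus DMSO high control, DC50 from four-parameter fit, Dmax as maximal degradation.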

Data on 6 molecules can be found in patent US20230265116A1, “DEGRADATION OF (EGFR) BY CONJUGATION OF EGFR INHIBITORS WITH E3 LIGASE LIGAND AND METHODS OF USE” (BEIGENE, LTD., priority 2020, published 2023).

For orientation: DC50 means the concentration at which degradation of the target reaches its halfway point. As a reminder, the Dmax is the largest share of the target that was removed.

T1 sequence (P00533 25-1210 T790M/C797S/L858R): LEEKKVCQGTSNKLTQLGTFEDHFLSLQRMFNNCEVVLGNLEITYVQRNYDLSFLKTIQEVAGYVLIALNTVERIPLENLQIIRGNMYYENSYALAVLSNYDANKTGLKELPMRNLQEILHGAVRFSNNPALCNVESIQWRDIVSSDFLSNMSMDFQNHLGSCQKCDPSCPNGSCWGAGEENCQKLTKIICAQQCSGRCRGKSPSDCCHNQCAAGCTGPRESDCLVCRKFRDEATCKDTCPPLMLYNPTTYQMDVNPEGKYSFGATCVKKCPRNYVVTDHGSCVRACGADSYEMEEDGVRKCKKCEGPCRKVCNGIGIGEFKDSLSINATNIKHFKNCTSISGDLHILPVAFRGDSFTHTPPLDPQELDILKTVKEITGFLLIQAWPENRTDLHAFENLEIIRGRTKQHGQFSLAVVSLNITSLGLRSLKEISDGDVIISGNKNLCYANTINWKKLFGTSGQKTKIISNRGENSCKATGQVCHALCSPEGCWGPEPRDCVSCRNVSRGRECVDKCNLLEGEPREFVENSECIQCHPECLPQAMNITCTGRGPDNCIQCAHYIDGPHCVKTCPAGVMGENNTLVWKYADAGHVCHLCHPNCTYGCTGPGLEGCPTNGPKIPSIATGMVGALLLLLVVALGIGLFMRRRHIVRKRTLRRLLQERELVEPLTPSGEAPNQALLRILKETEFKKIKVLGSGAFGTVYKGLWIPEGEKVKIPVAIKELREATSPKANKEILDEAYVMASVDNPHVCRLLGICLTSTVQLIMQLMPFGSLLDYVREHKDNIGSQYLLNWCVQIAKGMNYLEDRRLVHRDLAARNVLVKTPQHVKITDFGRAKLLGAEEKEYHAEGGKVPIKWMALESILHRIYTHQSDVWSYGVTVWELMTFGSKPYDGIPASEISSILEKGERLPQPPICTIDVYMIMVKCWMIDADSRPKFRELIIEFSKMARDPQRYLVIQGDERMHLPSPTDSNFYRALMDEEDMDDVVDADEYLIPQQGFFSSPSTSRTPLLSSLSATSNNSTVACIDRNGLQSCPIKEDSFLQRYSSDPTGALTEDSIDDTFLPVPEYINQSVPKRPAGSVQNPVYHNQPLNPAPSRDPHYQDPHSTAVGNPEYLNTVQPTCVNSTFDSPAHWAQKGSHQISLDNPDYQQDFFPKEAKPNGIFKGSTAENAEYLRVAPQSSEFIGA

Turning to `CCc1cc(Nc2ncc(Br)c(Nc3ccc4nccnc4c3P(C)(C)=O)n2)c(OC)cc1N1CCC(N2CCN(CCCCc3cc(F)c(C4CCC(=O)NC4=O)c(F)c3)CC2)CC1` (stereo not drawn) [Example 282, 3-(4-(4-(4-(1-(4-((5-bromo-4-((5-(dimethylphosphoryl)quinoxalin-6-yl)amino)pyrimidin-2-yl)amino)-2-ethyl-5-methoxyphenyl)piperidin-4-yl)piperazin-1-yl)butyl)-2,6-difluorophenyl)piperidine-2,6-dione], in assay [1], the “DTC Dmax (%)” value worked out at 93.51% and the 50% degradation concentration (DC50) turned out to be 15.2 nM. Besides, in assay [2], the Dmax came out at 85% and the DC50 was found to be 21.5 nM.
In the same order, the values of `CCc1cc(Nc2ncc(Br)c(Nc3ccc4nccnc4c3P(C)(C)=O)n2)c(OC)cc1N1CCC(N2CCN(C[C@H]3C[C@H](c4ccc(NC5CCC(=O)NC5=O)cc4)C3)CC2)CC1` (stereo partly drawn) [Example 284, 3-((4-((1r,3r)-3-((4-(1-(4-((5-bromo-4-((5-(dimethylphosphoryl)quinoxalin-6-yl)amino)pyrimidin-2-yl)amino)-2-ethyl-5-methoxyphenyl)piperidin-4-yl)piperazin-1-yl)methyl)cyclobutyl)phenyl)amino)piperidine-2,6-dione] are 77.49%, 61.2 nM, 75.5% and 81.4 nM.
For `CCc1cc(Nc2ncc(Br)c(Nc3ccc4nccnc4c3P(C)(C)=O)n2)c(OC)cc1N1CCC(N2CCN(CCc3ccc(C4CCC(=O)NC4=O)c(F)c3)C[C@@H]2COC)CC1` (stereo partly drawn) [Example 286, 3-(4-(2-((R)-4-(1-(4-((5-bromo-4-((5-(dimethylphosphoryl)quinoxalin-6-yl)amino)pyrimidin-2-yl)amino)-2-ethyl-5-methoxyphenyl)piperidin-4-yl)-3-(methoxymethyl)piperazin-1-yl)ethyl)-2-fluorophenyl)piperidine-2,6-dione] the same measures were 75.85%, 23.7 nM, 81.5% and 59.3 nM.
In the same order, the values of `CCc1cc(Nc2ncc(Br)c(Nc3ccc4nccnc4c3P(C)(C)=O)n2)c(OC)cc1N1CCC(N2CCN(CCc3ccc(C4CCC(=O)NC4=O)c(F)c3)[C@@H](CO)C2)CC1` (stereo partly drawn) [Example 287, 3-(4-(2-((R)-4-(1-(4-((5-bromo-4-((5-(dimethylphosphoryl)quinoxalin-6-yl)amino)pyrimidin-2-yl)amino)-2-ethyl-5-methoxyphenyl)piperidin-4-yl)-2-(hydroxymethyl)piperazin-1-yl)ethyl)-2-fluorophenyl)piperidine-2,6-dione] are 88.55%, 5.2 nM, 84.8% and 22.9 nM.
With `CCc1cc(Nc2ncc(Br)c(Nc3ccc4nccnc4c3P(C)(C)=O)n2)c(OC)cc1N1CCC(N2CCN(CCc3ccc(C4CCC(=O)NC4=O)c(F)c3)C[C@H]2COC)CC1` (stereo partly drawn) [Example 288, 3-(4-(2-((S)-4-(1-(4-((5-bromo-4-((5-(dimethylphosphoryl)quinoxalin-6-yl)amino)pyrimidin-2-yl)amino)-2-ethyl-5-methoxyphenyl)piperidin-4-yl)-3-(methoxymethyl)piperazin-1-yl)ethyl)-2-fluorophenyl)piperidine-2,6-dione], in assay [1], the “DTC Dmax (%)” value is 69.76% and the DC50 turned out to be 21.3 nM. For the same molecule, in assay [2], the maximal degradation (Dmax) amounted to 84.1% and the DC50 was 333 nM.
As for `CCc1cc(Nc2ncc(Br)c(Nc3ccc4nccnc4c3P(C)(C)=O)n2)c(OC)cc1N1CCC(N2CCN(CCc3ccc(C4CCC(=O)NC4=O)c(F)c3)[C@H](CO)C2)CC1` (stereo partly drawn) [Example 291, 3-(4-(2-((S)-4-(1-(4-((5-bromo-4-((5-(dimethylphosphoryl)quinoxalin-6-yl)amino)pyrimidin-2-yl)amino)-2-ethyl-5-methoxyphenyl)piperidin-4-yl)-2-(hydroxymethyl)piperazin-1-yl)ethyl)-2-fluorophenyl)piperidine-2,6-dione], in assay [1], the “DTC Dmax (%)” value was 83.17% and the DC50 worked out at 7.9 nM. Moreover, in assay [2], the Dmax was 87.2% and the DC50 turned out to be 23.6 nM.
